Measurements: PubChem BioAssay AID1645848
Converted amounts (≈) assume the structure as drawn.

conditions: buffer; pH 7.4; 6.0 h; 150.0 µM

Row | Structure (SMILES) | solubility kinetic
1 | CC(=O)c1ccc(N2CCN(S(=O)(=O)c3ccc4[nH]c(=O)[nH]c4c3)CC2)cc1 | 1.19 µg/mL (≈ 2.97 µM)
2 | Cc1ccc(-c2nc(NCC(=O)Nc3cccc(C(=O)O)c3)c3ccccc3n2)cc1 | > 61 µg/mL
3 | CCCNC(=O)Nc1ccc(Oc2ncnc3cc(OC)c(OC)cc23)cc1Cl | 1.55 µg/mL (≈ 3.73 µM)
4 | CN1C(=O)CN=C(c2ccccc2Cl)c2cc(Cl)ccc21 | > 47 µg/mL
5 | O=C(Nc1nc2cc(C(F)(F)F)ccc2s1)c1ccc(-c2cccc([N+](=O)[O-])c2)o1 | < 1 µg/mL
6 | Cc1cc(SCC(=O)c2ccccc2)n2ncc(-c3ccccc3)c2n1 | < 1 µg/mL
7 | CN(C)c1cccc(-c2ccnc(N3CCC(C(N)=O)CC3)n2)c1 | 39.1 µg/mL (≈ 120 µM)
8 | O=C1C2=C(Nc3ccccc3SC2c2ccco2)c2ccccc21 (centres undefined) | < 1 µg/mL
9 | Cc1ccc(-c2cc(C(=O)Nc3ncco3)c3ccccc3n2)cc1C | 4.24 µg/mL (≈ 12.3 µM)
10 | CC(=O)c1c(C)[nH]c(C(=O)Nc2cccc([S+](=O)([O-])Nc3ccncc3)c2)c1C | > 61 µg/mL
11 | COc1ccc(Cl)cc1C(=O)Nc1ccc(NC(=O)c2ccco2)cc1 | < 1 µg/mL
12 | CN1CCc2cc3c(cc2C1)OCO3 | > 28 µg/mL
13 | NC(=O)N1CCCC(C(=O)N2CCCN(c3ccc(F)cc3)CC2)C1 (centres undefined) | > 51 µg/mL
14 | CCn1ncc(NC(=O)Cn2ncc3cc(-c4cccc(OC)c4)ccc32)n1 | < 1 µg/mL
15 | CNc1oc(-c2cccc3ccccc23)nc1C(=O)Nc1cccc(C#N)c1 | < 1 µg/mL
16 | CCN(CC)C(=O)c1ccc2c(c1)ncn2-c1cccc(C)c1 | > 45 µg/mL
17 | Cc1ccc(NC2=C(c3ccc(C(F)(F)F)cc3)C(=O)c3ccccc32)cc1C | < 1 µg/mL
18 | CC(C)(C)OC(=O)N[C@@H](Cc1ccc(O[S+](=O)([O-])c2cccc3cnccc23)cc1)C(=O)N1CCN(Cc2ccccc2)CC1 | < 1 µg/mL
19 | COc1cccc(CNc2ccc(S(=O)(=O)Nc3ccc(C4CCNCC4)cc3)cc2)c1O | 58.4 µg/mL (≈ 125 µM)
20 | Cc1ccc(-c2cc(C(=O)Nc3cccc(S(N)(=O)=O)c3)c3ccccc3n2)cc1C | < 1 µg/mL
21 | Cc1ccccc1C(=O)N1CCC(C(=O)N2CCC(N3Cc4ccccc4C3=O)CC2)CC1 | > 44 µg/mL
22 | Cc1ccc(CCNC(=O)C2CCCN(C(=O)c3cc4sccc4n3C)C2)cc1 (centres undefined) | 3.09 µg/mL (≈ 7.55 µM)
23 | CN(C)C(=O)c1nc(-c2ccc(Cl)cc2Cl)c2cnccn12 | > 59 µg/mL
24 | CC(C)(C)c1ccc(-c2ccc(=O)n(CC(=O)NCCc3ccccc3)n2)cc1 | < 1 µg/mL
25 | COc1ccc(CNC(=O)Cn2nc3c(cc2=O)CCCC3)cc1 | > 48 µg/mL

Row | Structure (SMILES) | solubility kinetic
26 | O=C1CCCC2=C1C(c1[nH]ncc1Cl)N=C(Nc1nc3c(Cl)cccc3o1)N2 (centres undefined) | 1.83 µg/mL (≈ 4.39 µM)
27 | COc1ccc(Nc2nc(-c3ccncc3)nc3ccccc23)cc1F | < 1 µg/mL
28 | CCOc1ccc(-c2cn3c(n2)sc2cc(C(=O)NCCCN(CC)CC)ccc23)cc1 | > 67 µg/mL
29 | O=C(NC1CC1)c1ccc(CSCc2ccccc2Cl)o1 | > 47 µg/mL
30 | O=C(Nc1ncnc2sc3c(c12)CCCCC3)c1ccco1 | 1.72 µg/mL (≈ 5.49 µM)
31 | CNC(=O)C1=C(C)NC(Nc2nc3ccccc3o2)=NC1c1[nH]ncc1Cl (centres undefined) | > 57 µg/mL
32 | CCOc1ccc(CCNC(=O)c2ccccc2)cc1OCC | 29.2 µg/mL (≈ 93.3 µM)
33 | CSc1ccc(-c2cnc(N3CCC(C(N)=O)CC3)s2)cc1 | < 1 µg/mL
34 | Cc1cc(C)nc(NC(=S)N2CCN(c3ccc(Cl)cc3[N+](=O)[O-])CC2)c1 | 3.08 µg/mL (≈ 7.59 µM)
35 | Cc1ccnc(NC(=S)N2CCN(c3cccc(C(F)(F)F)n3)CC2)c1 | 3.88 µg/mL (≈ 10.2 µM)
36 | Cc1c(-c2nsc(NC(=O)c3cccc(Cl)c3)n2)nnn1-c1ccccc1C(F)(F)F | < 1 µg/mL
37 | O=C(Nc1ccccc1F)c1nc(S(=O)(=O)Cc2ccccc2F)ncc1Cl | 3.63 µg/mL (≈ 8.57 µM)
38 | O=C(O)c1ccc(O)c2ncc(N3CCCN(CCc4cccc5ccccc45)CC3)cc12 | 21.4 µg/mL (≈ 48.4 µM)
39 | O=C(Nc1nc(-c2ccc(F)cc2)cs1)c1ccncc1NS(=O)(=O)c1ccccc1Cl | < 1 µg/mL
40 | C=CCON=C(C[C@H]1O[C@@H]2O[C@]3(C)CC[C@@H]4[C@H](C)CC[C@@H]([C@H]1C)[C@@]24OO3)[C@H]1O[C@@H]2O[C@]3(C)CC[C@H]4[C@H](C)CC[C@@H]([C@@H]1C)[C@@]24OO3 | 26.6 µg/mL (≈ 42.1 µM)
41 | Clc1ccccc1-c1nccc(-n2ccnc2)n1 | 7.3 µg/mL (≈ 28.4 µM)
42 | CCOc1ccc(CCNC(=O)c2ccc3ccccc3n2)cc1OCC | 8.84 µg/mL (≈ 24.3 µM)
43 | Cc1ccc(S(=O)(=O)Nc2ccc(Cl)cc2C(=O)Nc2nc(-c3ccccc3)cs2)cc1 | < 1 µg/mL
44 | CCCCCCN(CCCCCC)C(=O)Cc1c(-c2ccc(F)cc2)[nH]c2ccccc12 | < 1 µg/mL
45 | CCOc1ccc(CCNC(=O)c2cc3cnccc3n2Cc2cccc(C)n2)cc1OCC | > 68 µg/mL
46 | CN(Cc1cnc2nc(N)nc(N)c2n1)c1ccc(C(=O)N[C@@H](CCC(=O)O)C(=O)O)cc1 | > 67 µg/mL
47 | O=C(NCc1cccnc1)c1nc(-c2ccc(Cl)nc2)c2cnccn12 | 4.69 µg/mL (≈ 12.9 µM)
48 | CC1=Nc2cc(C(=O)NCc3ccccc3Cl)ccc2Sc2c(C)ccc(C)c21 | < 1 µg/mL
49 | COc1ccc(Nc2nnc(-c3ccc(C)c(S(=O)(=O)NCc4nc5ccccc5[nH]4)c3)c3ccccc23)cc1 | < 1 µg/mL
